This is an account of results in US20120101083A1, “S1P1 AGONISTS COMPRISING A BICYCLIC N-CONTAINING RING” (GLAXO GROUP LIMITED, priority 2009, published 2012).

Structures can show the parent of a compound that is named as a salt.

This experiment deals with T1, S1P1 receptor (S1P1 expressing RH7777 membranes) (Homo sapiens, UniProt P21453).
T1 construct: expressed in transfected cells; host or cells: RH7777 cells (membranes)
T1 sequence (P21453 whole entry): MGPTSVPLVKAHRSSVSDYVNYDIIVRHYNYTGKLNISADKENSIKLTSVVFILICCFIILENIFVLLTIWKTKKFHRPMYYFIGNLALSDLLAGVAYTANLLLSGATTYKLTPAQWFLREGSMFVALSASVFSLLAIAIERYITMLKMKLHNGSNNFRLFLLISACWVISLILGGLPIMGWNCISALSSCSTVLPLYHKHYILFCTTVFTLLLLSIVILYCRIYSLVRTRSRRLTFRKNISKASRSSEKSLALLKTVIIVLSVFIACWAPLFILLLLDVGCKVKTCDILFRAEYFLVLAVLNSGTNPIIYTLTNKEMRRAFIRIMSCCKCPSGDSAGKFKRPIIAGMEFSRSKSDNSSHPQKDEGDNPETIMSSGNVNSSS
Nature of the experiment: S1P1 GTPγS assay. The experiment is classed as biochemical. To be noted: tested in one of the above S1P1 assays (two GTPγS formats). The procedure: The potencies and efficacies of the compounds of this invention for the S1P1 receptor can be determined by GTPγS assay performed on the human cloned receptor as described herein.
Membrane preparation for S1P1 GTPγS assay
All steps were performed at 4° C. Cells were homogenised within a glass Waring blender for 2 bursts of 15 secs in 200 mls of buffer (50 mM HEPES, 1 mM leupeptin, 25 μg/ml bacitracin, 1 mM EDTA, 1 mM PMSF, 2 μM pepstatin A). The blender was plunged into ice for 5 mins after the first burst and 10-40 mins after the final burst to allow foam to dissipate. The material was then spun at 500 g for 20 mins and the supernatant spun for 36 mins at 48,000 g. The pellet was resuspended in the same buffer as above but without PMSF and pepstatin A. The material was then forced through a 0.6 mm needle, made up to the required volume, (usually x4 the volume of the original cell pellet), aliquoted and stored frozen at −80° C.
S1P1 expressing RH7777 membranes (1.5 μg/well) membranes (1.5 μg/well) were homogenised by passing through a 23 G needle. These were then adhered to WGA-coated SPA beads (0.125 mg/well) in assay buffer (HEPES 20 mM, MgCl2 10 mM, NaCl 100 mM and pH adjusted to 7.4 using KOH 5M). GDP 10 μM FAC and saponin 90 μg/ml FAC were also added
After 30 minutes precoupling on ice, the bead and membrane suspension was dispensed into white Greiner polypropylene LV 384-well plates (5 μl/well), containing […] of compound. 5 μl/well [^35S]-GTPγS (0.5 nM for S1P1 or 0.3 nM for S1P3 final radioligand concentration) made in assay buffer was then added to the plates. The final assay cocktail (10.1 μl) was then sealed, spun on a centrifuge, then read immediately on a Viewlux instrument.
Alternatively, after 30 minutes precoupling on ice, the bead and membrane suspension was mixed with ^35S]-GTPγS (0.5 nM final radioligand concentration) in assay buffer (HEPES 20 mM, MgCl2 10 mM, NaCl 100 mM and pH adjusted to 7.4 using KOH 5M) in a 1:1 ratio. The bead, membrane and radioligand suspension was dispensed into white Greiner polypropylene low volume 384-well plates (10 μl/well), containing 0.1 μl of a solution of test compound in 100% DMSO. The final assay cocktail (10.1 μl) was then sealed, spun on a centrifuge, then read immediately on a Viewlux instrument.
The term EC50 denotes the concentration at which the effect is half-maximal. A lower EC50 goes with greater potency. Molecule `CCCNc1ncc(-c2nc(-c3ccc4c(c3C)CCN(C[C@H](O)CO)CC4)no2)cc1C#N` [Example 145, 5-(3-{34[(2S)-2,3-dihydroxypropyl]-6-methyl-2,3,4,5-tetrahydro-1H-3-benzazepin-7-yl}-1,2,4-oxadiazol-5-yl)-2-(propylamino)-3-pyridinecarbonitrile] gave an EC50 of at most 1 µM.

As for `Cc1c(-c2noc(-c3ccc(OC(C)C)c(C#N)c3)n2)ccc2c1CCN(CC(=O)NC[C@H](C)O)C2` [Example 121, 2-[6-(5-{3-cyano-4-[(1-methylethyl)oxy]phenyl}-1,2,4-oxadiazol-3-yl)-5-methyl-3,4-dihydro-2(1H)-isoquinolinyl]-N-[(2S)-2-hydroxypropyl]acetamide hydrochloride], the EC50 was at most 0.01 µM.

As for `CCCOc1ncc(-c2nc(-c3ccc4c(c3)CCN(C(=O)CN)CC4)no2)cc1C#N` [Example 107, 5-[3-(3-glycyl-2,3,4,5-tetrahydro-1H-3-benzazepin-7-yl)-1,2,4-oxadiazol-5-yl]-2-(propyloxy)-3-pyridinecarbonitrile], the EC50 is at most 1 µM.

In turn, `CC(C)Oc1ccc(-c2nnc(-c3cccc4c3CCN(CCO)C4)s2)cc1C#N` [Example 38, 5-{5-[2-(2-hydroxyethyl)-1,2,3,4-tetrahydro-5-isoquinolinyl]-1,3,4-thiadiazol-2-yl}-2-[(1-methylethyl)oxy]benzonitrile] had an EC50 of at most 1 µM.

Turning to `CC(C)Oc1ccc(-c2nc(-c3cccc4c3CCN(CCCO)CC4)no2)cc1C#N` [Example 33, 5-{3-[3-(3-Hydroxypropyl)-2,3,4,5-tetrahydro-1H-3-benzazepin-6-yl]-1,2,4-oxadiazol-5-yl}-2-[(1-methylethyl)oxy]benzonitrile], the EC50 is at most 0.1 µM.

`CC(C)Oc1ccc(-c2nc(-c3ccc4c(c3)CCN(C(=O)CN[C@H](C)CO)CC4)no2)cc1C#N` [Example 98, 5-[3-(3-{N-(1R)-2-hydroxy-1-methylethyl]glycyl}-2,3,4,5-tetrahydro-1H-3-benzazepin-7-yl)-1,2,4-oxadiazol-5-yl]-2-[(1-methylethyl)oxy]benzonitrile hydrochloride]: the EC50 is at most 0.01 µM.

With `CCCNc1ccc(-c2nc(-c3ccc4c(c3)CCN(CC(O)CO)CC4)no2)cc1C#N` (stereo not drawn) [Example 50, 5-{3-[3-(2,3-dihydroxypropyl)-2,3,4,5-tetrahydro-1H-3-benzazepin-7-yl]-1,2,4-oxadiazol-5-yl}-2-(propylamino)benzonitrile], the EC50 was at most 0.1 µM.

`Cc1c(-c2nnc(-c3ccc(OC(C)C)c(C#N)c3)s2)ccc2c1CCN(CCO)C2` [Example 15, 5-{5-[2-(2-Hydroxyethyl)-5-methyl-1,2,3,4-tetrahydro-6-isoquinolinyl]-1,3,4-thiadiazol-2-yl}-2-[(1-methylethyl)oxy]benzonitrile]: the EC50 is at most 0.1 µM.

Turning to `CC(C)Nc1ccc(-c2nc(-c3ccc4c(c3)CCN(CC(O)CO)CC4)no2)cc1C#N` (stereo not drawn) [Example 49, 5-{3-[3-(2,3-dihydroxypropyl)-2,3,4,5-tetrahydro-1H-3-benzazepin-7-yl]-1,2,4-oxadiazol-5-yl}-2-[(1-methylethyl)amino]benzonitrile], the EC50 was at most 0.1 µM.

For `CC(C)Oc1ccc(-c2nc(-c3cccc4c3CCN(CCC(N)=O)CC4)no2)cc1C#N` [Example 32, 3-[6-(5-{3-Cyano-4-[(1-methylethyl)oxy]phenyl}-1,2,4-oxadiazol-3-yl)-1,2,4,5-tetrahydro-3H-3-benzazepin-3-yl]propanamide], the EC50 was at most 1 µM.

Regarding `CCOc1ccc(-c2nc(-c3ccc4c(c3)CCN(C(=O)CN)CC4)no2)cc1C#N` [Example 61, 2-(ethyloxy)-5-[3-(3-glycyl-2,3,4,5-tetrahydro-1H-3-benzazepin-7-yl)-1,2,4-oxadiazol-5-yl]benzonitrile], the EC50 is at most 0.1 µM.

The molecule `CC(C)Oc1ccc(-c2nc(-c3ccc4c(c3)CCN(CC(O)CO)CC4)no2)cc1C#N` (stereo not drawn) [Example 27, 5-{3-[3-(2,3-Dihydroxypropyl)-2,3,4,5-tetrahydro-1H-3-benzazepin-7-yl]-1,2,4-oxadiazol-5-yl}-2-[(1-methylethyl)oxy]benzonitrile] gave an EC50 of at most 0.1 µM.

`Cc1c(-c2noc(-c3ccc(OC(C)C)c(C#N)c3)n2)ccc2c1CCN(C(=O)[C@](C)(N)CO)C2` [Example 85, 2-[(1-methylethyl)oxy]-5-{3-[5-methyl-2-(2-methyl-D-seryl)-1,2,3,4-tetrahydro-6-isoquinolinyl]-1,2,4-oxadiazol-5-yl}benzonitrile]: the EC50 was at most 0.1 µM.

Molecule `CC(C)Oc1ccc(-c2nc(-c3cccc4c3CCN(CC(O)CO)CC4)no2)cc1C#N` (stereo not drawn) [Example 35, 5-{3-[3-(2,3-Dihydroxypropyl)-2,3,4,5-tetrahydro-1H-3-benzazepin-6-yl]-1,2,4-oxadiazol-5-yl}-2-[(1-methylethyl)oxy]benzonitrile hydrochloride] showed an EC50 of at most 0.1 µM.

On to `Cc1c(-c2noc(-c3ccc(OC(C)C)c(C#N)c3)n2)ccc2c1CCN(CC(=O)NC[C@@H](C)O)C2` [Example 120, 2-[6-(5-{3-cyano-4-[(1-methylethyl)oxy]phenyl}-1,2,4-oxadiazol-3-yl)-5-methyl-3,4-dihydro-2(1H)-isoquinolinyl]-N-[(2R)-2-hydroxypropyl]acetamide hydrochloride], for which the concentration for a half-maximal effect (EC50) is at most 0.01 µM.

In turn, `CC(C)Oc1ccc(-c2nnc(-c3cccc4c3CCN(CCC(=O)N(C)C)C4)s2)cc1C#N` [Example 46, 3-[5-(5-{3-cyano-4-[(1-methylethyl)oxy]phenyl}-1,3,4-thiadiazol-2-yl)-3,4-dihydro-2(1H)-isoquinolinyl]-N,N-dimethylpropanamide] had an EC50 of at most 1 µM.

Turning to `CC(C)Oc1ccc(-c2nc(-c3ccc4c(c3)CCN(C(=O)C(C)(C)N)CC4)no2)cc1C#N` [Example 117, 5-{3-[3-(2-methylalanyl)-2,3,4,5-tetrahydro-1H-3-benzazepin-7-yl]-1,2,4-oxadiazol-5-yl}-2-[(1-methylethyl)oxy]benzonitrile], the EC50 was at most 1 µM.

`CC(C)Oc1ncc(-c2nc(-c3ccc4c(c3)CCN(C(CO)CO)CC4)no2)cc1C#N` [Example 95, 5-(3-{3-[2-hydroxy-1-(hydroxymethyl)ethyl]-2,3,4,5-tetrahydro-1H-3-benzazepin-7-yl}-1,2,4-oxadiazol-5-yl)-2-[(1-methylethyl)oxy]-3-pyridinecarbonitrile] had an EC50 of at most 0.01 µM.

`CC(C)Oc1ccc(-c2nnc(-c3ccc4c(c3)CCN(CCCO)CC4)s2)cc1C#N` [Example 29, 5-{5-[3-(3-Hydroxypropyl)-2,3,4,5-tetrahydro-1H-3-benzazepin-7-yl]-1,3,4-thiadiazol-2-yl}-2-[(1-methylethyl)oxy]benzonitrile] had an EC50 of at most 1 µM.

In the case of `CC(C)Nc1ccc(-c2nc(-c3ccc4c(c3)CCN(C(=O)CN)CC4)no2)cc1C#N` [Example 52, 5-[3-(3-glycyl-2,3,4,5-tetrahydro-1H-3-benzazepin-7-yl)-1,2,4-oxadiazol-5-yl]-2-[(1-methylethyl)amino]benzonitrile], the EC50 is at most 0.1 µM.

Molecule `CCCNc1ccc(-c2nc(-c3ccc4c(c3)CCN(C(=O)CN)CC4)no2)cc1C#N` [Example 53, 5-[3-(3-glycyl-2,3,4,5-tetrahydro-1H-3-benzazepin-7-yl)-1,2,4-oxadiazol-5-yl]-2-(propylamino)benzonitrile] had an EC50 of at most 0.1 µM.

Regarding `Cc1c(-c2noc(-c3ccc(OC(C)C)c(C#N)c3)n2)ccc2c1CCN(C(CO)CO)C2` [Example 66, 5-(3-{2-[2-hydroxy-1-(hydroxymethyl)ethyl]-5-methyl-1,2,3,4-tetrahydro-6-isoquinolinyl}-1,2,4-oxadiazol-5-yl)-2-[(1-methylethyl)oxy]benzonitrile hydrochloride], the EC50 is at most 0.1 µM.

As for `CC(C)Oc1ccc(-c2nc(-c3ccc4c(c3)CCN(C(=O)[C@H](N)[C@@H](C)O)CC4)no2)cc1C#N` [Example 58, 5-[3-(3-D-allothreonyl-2,3,4,5-tetrahydro-1H-3-benzazepin-7-yl)-1,2,4-oxadiazol-5-yl]-2-[(1-methylethyl)oxy]benzonitrile], the EC50 was at most 0.1 µM.

`CC(C)Oc1ccc(-c2nc(-c3ccc4c(c3)CCN(CCCO)CC4)no2)cc1C#N` [Example 20, 5-{3-[3-(3-Hydroxypropyl)-2,3,4,5-tetrahydro-1H-3-benzazepin-7-yl]-1,2,4-oxadiazol-5-yl}-2-[(1-methylethyl)oxy]benzonitrile]: the EC50 is at most 0.1 µM.
